Experimental data from patent publication US11173446B2, “Process for removal of acid gases from a fluid stream” (BASF SE, priority 2017, dated 2021).

Legend:
[1] = pKa of the amino groups by titration with hydrochloric acid (Example 5); format: physicochemical; conditions: 20° C.
Excerpt: An aqueous amine solution (0.005 mol/L) was titrated with hydrochloric acid (0.1 mol/L).

[2] = Volatility of 30% by weight aqueous amine solutions (Example 4); format: physicochemical; conditions: 30% by weight aqueous solutions, 50° C.

CC(C)(C)NCC(O)CO (centres unmarked) [TBAPD, 3-(tert-butylamino)propane-1,2-diol]
pKA value, comparison in words [1]: greater than that of MDEA | volatility, comparison in words [2]: lower volatility compared to the M3ETB, TBAEE and MDEA
